Data as given in patent US9815851B2, “Pyrrolo carboxamides as modulators of orphan nuclear receptor RAR-related orphan receptor-gamma (RORγ, NR1F3) activity and for the treatment of chronic inflammatory and autoimmune diseases” (PHENEX PHARMACEUTICALS AG, priority 2011, dated 2017).
Where two headings read alike, the source gives them in different places.

Tests used:
[1] = biological target: T1, RORγ ligand binding domain (LBD) (Homo sapiens, UniProt P51449); assay: TR-FRET Activity Assay (ligand sensing, RORγ-LBD / coactivator peptide interaction, LANCE); type: biochemical
T1 construct: made in house; host or cells: E. coli BL-21 (BL3), vector pDEST15
T1 sequence (P51449 269-508 limits assumed): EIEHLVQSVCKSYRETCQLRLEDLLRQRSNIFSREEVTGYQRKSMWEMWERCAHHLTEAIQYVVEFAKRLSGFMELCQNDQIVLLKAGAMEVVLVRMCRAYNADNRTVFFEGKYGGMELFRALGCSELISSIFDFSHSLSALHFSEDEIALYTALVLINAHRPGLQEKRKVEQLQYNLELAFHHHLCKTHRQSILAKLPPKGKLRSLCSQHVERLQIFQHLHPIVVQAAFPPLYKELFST

RORγ = biological target: T2, RORγ (UniProt P51449); assay: RORγ Gal4 Reporter Gene Assay in 293T cells (firefly and renilla luciferase); type: cell-based, human
T2 sequence (P51449 1-518): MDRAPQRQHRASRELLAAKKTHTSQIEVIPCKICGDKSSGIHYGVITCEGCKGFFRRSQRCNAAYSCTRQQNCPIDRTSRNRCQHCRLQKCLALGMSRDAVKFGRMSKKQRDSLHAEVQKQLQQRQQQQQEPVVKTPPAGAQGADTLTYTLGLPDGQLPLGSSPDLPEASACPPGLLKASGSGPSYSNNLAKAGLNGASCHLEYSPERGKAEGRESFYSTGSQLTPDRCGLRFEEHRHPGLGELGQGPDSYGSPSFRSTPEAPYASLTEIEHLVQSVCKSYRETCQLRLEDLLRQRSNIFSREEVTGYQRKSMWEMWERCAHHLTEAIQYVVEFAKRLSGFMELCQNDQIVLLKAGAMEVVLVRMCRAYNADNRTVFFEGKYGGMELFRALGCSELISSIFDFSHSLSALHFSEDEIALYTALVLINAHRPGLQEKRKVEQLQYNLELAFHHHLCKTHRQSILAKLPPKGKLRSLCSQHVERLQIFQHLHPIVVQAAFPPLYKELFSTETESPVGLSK

[2] = first value of the cell FRET/FF/REN, TR-FRET activity assay, read-out: pIC50 (FRET) (converted)
[3] = second value of the cell, Gal4 reporter gene assay in 293T cells, firefly luciferase
[4] = third value of the cell, Gal4 reporter gene assay in 293T cells, renilla normalised luciferase

Compound	IC50 [1, 2] [nM]	pIC50 (FF) (RORγ; [3])	pIC50 (REN) (RORγ; [4])	IC50 [1] [nM]	pIC50 (FF) (RORγ)	pIC50 (REN) (RORγ)
Cc1c(C(=O)NC2CCOCC2)cc(-c2ccc(-c3ccnn3C(C)C)c(C(F)(F)F)c2)n1CC1CCCCC1 [17/249]	501	6.6	6.7			
Cc1c(C(=O)NC2CCOCC2)cc(-c2ccc(-c3cnn(C(C)(C)C)c3)c(C(C)(C)C)c2)n1CC1CCCCC1 [26/2]	200	7.2	7.2			
Cc1c(-c2cc(C(=O)NC3CCOCC3)c(C)n2CC2CCCCC2)ccc(S(=O)(=O)NC(C)(C)C)c1C [17/273]	1580	7.2	7.3			
CC(=O)c1cc(-c2cc(C(=O)NC3CCOCC3)c(C)n2CC2CCCCC2)cc(C(C)(C)C)c1 [17/103]				794	6.1/6.7/6.8	6.1/6.7/6.8
CCNC(=O)c1cc(-c2ccc(S(=O)(=O)NC(C)(C)C)c(C(C)(C)C)c2)n(CC2CCCCC2)c1C [17/98]	316	6.8	6.9			
Cc1c(C(=O)NCC(C)(C)O)cc(-c2cc(C(C)(C)C)c3c(c2)C(C)(C)CO3)n1CC1CCCCC1 [17/86]	316	7.1	7.1			
Cc1c(C(=O)NC2CCOCC2)cc(-c2ccc(S(=O)(=O)NC(C)(C)C)c(OC(F)F)c2)n1CC1CCCCC1 [17/106]	501	7.3	7.3			
Cc1c(S(=O)(=O)NC(C)(C)C)ccc(-c2cc(C(=O)NC3CCOCC3)c(C)n2CC2CCCCC2)c1OC(F)F [17/285]	631	7.3	7.4			
Cc1c(C(=O)NCC(C)(C)c2nn[nH]n2)cc(-c2cc(C(C)(C)C)cc(C3(C)CC3)c2)n1CC1CCCCC1 [17/77]	794	8.0	8.1			
Cc1c(C(=O)NC2COC2)cc(-c2cc(C(C)(C)C)cc(C(C)(C)C)c2)n1CC1CCCCC1 [1/53]				158	6.8/7.3/7.4	6.8/7.3/7.4
Cc1c(C(=O)NCC2CCS(=O)(=O)C2)cc(-c2cc(C(C)(C)C)c3c(c2)C2(CCO3)CC2)n1CC1CCCCC1 (stereo not drawn) [17/12]	200	7.2	7.4			
Cc1c(C(=O)NC2CCOCC2)cc(-c2ccc(S(=O)(=O)NC(C)(C)C)c(Cl)c2Cl)n1CC1CCCCC1 [17/276]				158	6.8/7.9/8.0	6.8/7.9/8.0
Cc1c(C(=O)N[C@H]2C[C@H](C(=O)O)C2)cc(-c2ccc(S(=O)(=O)NC(C)(C)C)c3ccccc23)n1CC1CCCCC1 [17/240]	794	7.5	7.6			
Cc1c(C(=O)NCCc2noc(=O)[nH]2)cc(-c2ccc(S(=O)(=O)NC(C)(C)C)c(C(C)(C)O)c2)n1CC1CCCCC1 [17/333]	398	6.4	6.3			
Cc1c(C(=O)N(C)CC2(O)CCOCC2)cc(-c2cc(C(C)(C)C)c3c(c2)C2(CCO3)CC2)n1CC1CCCCC1 [17/39]				398	6.4/6.9/6.8	6.4/6.9/6.8
Cc1c(C(N)=O)cc(-c2cc(C3CC3)cc(C(C)(C)C)c2)n1CC1CCCCC1 [Example 12, 5-(3-(tert-Butyl)-5-cyclopropylphenyl)-1-(cyclohexylmethyl)-2-methyl-1H-pyrrole-3-carboxamide]	1000	6.1	6.2			
Cc1c(S(=O)(=O)NC(C)(C)C)ccc(-c2cc(C(=O)N[C@H]3C[C@H](C(=O)O)C3)c(C)n2CC2CCCCC2)c1Cl [17/275]	631	7.0	7.0			
Cc1c(C(=O)N[C@H]2C[C@H](C(=O)O)C2)cc(-c2ccc(-c3nnc(C(C)(C)C)o3)c(C(C)(C)C)c2)n1CC1CCCCC1 [17/252]	1580	6.5	6.6			
Cc1c(C(=O)NC2CCOCC2)cc(-c2ccc(S(=O)(=O)NC(C)(C)C)c(C(F)(F)F)c2F)n1CC1CCCCC1 [17/231]	251	7.5	7.7			
Cc1c(C(=O)NC2CCOCC2)cc(-c2ccc(C(=O)NCC3CCCCC3)c(C(C)(C)C)c2)n1CC1CCCCC1 [6/7]				1000	6.0/6.5/6.4	6.0/6.5/6.4
Cc1c(C(=O)NC2COC2)cc(-c2cc(C(C)(C)C)cc(C(C)(C)C)c2)n1CC1CCCC(C)C1 (stereo not drawn) [1/119]				200	6.7/7.4/7.3	6.7/7.4/7.3
